Data set [1] concerns rats with renal diseases. Particulars: J. Pharmacol. Exp. Ther., 267: 657-663, 1993; cited from earlier work.
The subject of data set [2] is ICR mice. As to the kind of experiment: Acute toxicity (oral, single dose). The format is in vivo. The note with it: 500 mg/kg oral once, 0.5% methylcellulose, after six days. On the procedure:
Female 5-week-old ICR mice were divided to groups each having five animals and acclimated for a week. Compound Nos. 1-3, 7, 8, 11 and 13 each was dissolved or dispersed in 0.5% methylcelulose aqueous solution, respectively, and orally administered once at a dose of 500 mg/kg, then the number of dead animals was counted after six days.

For data set [3], the system named is angiotensin converting enzyme (ACE). The note with it: cited from earlier work.
For data set [4], the system named is SHR rats, 3/4 NPX cardiac hypertrophy model. As to the kind of experiment: Inhibitory action of myocardial disturbance, Test 2 (3/4 NPX cardiac hypertrophy model). Format: in vivo. On the procedure:
Similarly, 3/4 NPX (cardiac hypertrophy model caused by 3/4 partial nephrectomy) was carried out at four weeks point in a control group and test group of SHR rats each having two and three animals. […] After 11 weeks, kidneys and heart were excised and their weight was determined.

Data set [5] concerns SHR rats, 3/4NPX cardiac hypertrophy model. In words: Inhibitory action of myocardial disturbance, Test 1 (3/4NPX cardiac hypertrophy model). The format is in vivo. As to the method: SHR rats were divided into control group and test group each having three animals and both groups were treated with 3/4NPX, an experimental cardiac hypertrophy model prepared by 3/4 partial nephrectomy, after eight weeks. […] After the oral administration,kidneys and heart were excised and their weight was determined.

Setting [6] is: J. Clin. Pharmacol., 30:155-158, 1990.
The mark [7] stands for this setting: test group average, 20 mg/kg in drinking water, after 9 weeks.
The mark [8] stands for this setting: test group average, 20 mg/kg in drinking water, after 11 weeks.
[9] abbreviates: test group individual animals 1-3 in order, 20 mg/kg, after 9 weeks, 20 mg/kg.
Where [10] appears, read: test group individual animals 1-3 in order, 20 mg/kg, after 11 weeks, 20 mg/kg.
[11] abbreviates: test group average, 20 mg/kg in drinking water four weeks, after 16 weeks.
Where [12] appears, read: test group individual animals 1-3 in order, 20 mg/kg, after 16 weeks, 20 mg/kg.

The values that follow come from US5932575A, “Cardiac diseases improving agents” (Kureha Chemical Industry Co., Ltd., priority 1997, dated 1999).

SMILES strings stand for the structures. Several values for one entry are separate records, joined by “and”; a condition that tells them apart may be missing. Equal values may be shown once.

Take `CCCN(Cc1ccc(-c2ccccc2-c2nnn[nH]2)cc1)c1ncccc1C(=O)O` [A-81988, 2-[N-propyl-N-[[2'-(1H-tetrazol-5-yl)biphenyl-4-yl]methyl]amino]-pyridine-3-carboxylic acid]: in data set [1], the “hypotension (in words)” value is listed as “accompanied with hypotension” and the “proteinuria (in words)” value is recorded as “improvement in proteinuria”.
On to `CCCCC(=O)N(Cc1ccc(-c2nn[nH]n2)cc1)c1cc(C(=O)N2CCOCC2)ccc1N(C)C` [Compound No. 13, 4-Dimethylamino-3-N-[[4-(1H-tetrazol-5-yl)phenylmethyl]valeramido]benzoic acid morpholide], for which, in data set [2], the “number of dead animals” value is listed as “No dead animals was found”.
Turning to `CCCCC(=O)N(Cc1ccc(-c2ccccc2-c2nn[nH]n2)cc1)c1cc(C(=O)N2CCOCC2)ccc1N(C)C` [Compound No. 11], the “number of dead animals” value in data set [2] is “No dead animals was found”.
On the same count and under the same terms, under `CCCCC(=O)N(Cc1ccc(C(=O)O)cc1)c1cc(C(=O)N2CCOCC2)ccc1N(C)C` [Compound No. 7, 3-N-[[(4-Carboxyphenyl)methy)valeramido]-4-dimethylaminobenzoic acid morpholide] stands “No dead animals was found”; under `CCCCC(=O)N(Cc1ccc(C(=O)O)cc1)c1cc(C(=O)N2CCOCC2)ccc1C` [Compound No. 8, 4-Methyl-3-N-[[4-(carboxyphenyl)methyl]valeramido]benzoic acid morpholide], “No dead animals was found”.
In the case of `CCOC(=O)[C@H](CCc1ccccc1)N[C@@H](C)C(=O)N1CCC[C@H]1C(=O)O` [Enalapril], in data set [3] (setting [6]), the “blood pressure (in words)” value is “lower blood pressure” and the “renal dysfunction (in words)” value is listed as “improve the progress of renal dysfunction”. Also, the “adverse reactions (in words)” value in data set [3] was “dry cough or adverse reaction of acute renal failure”.
Take `CCCCC(=O)N(Cc1ccc(C(=O)OCCN(C)C)cc1)c1cc(C(=O)N2CCOCC2)ccc1N(C)C` [Compound No. 1, 4-dimethylamino-3-N-[[[4-(2'-dimethylaminoethoxycarbonyl)phenyl]-methyl]valeramido]benzoic acid morpholide]: in data set [4] (Test 2, 20 mg/kg), the “heart weight (in words)” value is listed as “declined heart weight”, the “myocardial disturbance (in words)” value is recorded as “inhibition of myocardial disturbance” and the “urinary protein (in words)” value is “significant decrease of urinary protein”. In data set [4] (setting [7]), the “BP: blood pressure, average” value was found to be 214 mmHg; the “BUN: blood urea nitrogen, average” value was 44 mg/dL; the “BW: body weight, average” value is recorded as 258 g; the “CCr: creatinine clearance, average” value came out at 0.64 mL/min. In addition, in data set [4] (setting [7]), the “Cr: blood creatinine, average” value was 0.7 mg/dL and the “U-Pro.: urinary protein, average” value came to 43.3 mg/day. Besides, in data set [4] (setting [8]), the “BP: blood pressure, average” value worked out at 237 mmHg; the “BUN: blood urea nitrogen, average” value turned out to be 56 mg/dL; the “BW: body weight, average” value stood at 286 g; the “CCr: creatinine clearance, average” value was 0.67 mL/min. In addition, in data set [4] (setting [8]), the “Cr: blood creatinine, average” value worked out at 0.8 mg/dL; the “HW: heart weight, average” value is reported as 1.078 g; the “KW: kidney weight, average” value turned out to be 1.350 g; the “RW: relative weight (heart), average” value is 0.378%. For the same molecule, in data set [4] (setting [8]), the “RW: relative weight (kidney), average” value is reported as 0.473% and the “U-Pro.: urinary protein, average” value was 65.4 mg/day. Also, in data set [4] (setting [9]), the “BP: blood pressure, individual animal” value was 205 mmHg and 219 mmHg and 214 mmHg; the “BUN: blood urea nitrogen, individual animal” value (“BUN … individual animal” below) was 41 mg/dL and 45 mg/dL and 47 mg/dL; the “BW: body weight, individual animal” value was 263 g and 254 g and 256 g; the “CCr: creatinine clearance, individual animal” value (shortened to “CCr … individual animal”) was 0.83 mL/min and 0.51 mL/min and 0.58 mL/min. In data set [4] (setting [9]), the “Cr: blood creatinine, individual animal” value was 0.6 mg/dL and 0.8 mg/dL; the “U-Pro.: urinary protein, individual animal” value is 38.7 mg/day and 41.5 mg/day and 49.8 mg/day. Also, in data set [4] (setting [10]), the “BP: blood pressure, individual animal” value is 217 mmHg and 259 mmHg and 234 mmHg; the “BUN … individual animal” value was 44 mg/dL and 50 mg/dL and 58 mg/dL; the “BW: body weight, individual animal” value is 299 g and 271 g and 287 g; the “CCr … individual animal” value is 0.79 mL/min and 0.55 mL/min and 0.67 mL/min. Besides, in data set [4] (setting [10]), the “Cr: blood creatinine, individual animal” value was 0.7 mg/dL and 0.8 mg/dL and 1.0 mg/dL; the “HW: heart weight, individual animal” value was 1.113 g and 1.018 g and 1.106 g; the “KW: kidney weight, individual animal” value is 1.364 g and 1.319 g and 1.368 g; the “RW: relative weight (heart), individual animal” value was 0.372% and 0.376% and 0.385%. Besides, in data set [4] (setting [10]), the “RW: relative weight (kidney), individual animal” value was 0.456% and 0.487% and 0.477%; the “U-Pro.: urinary protein, individual animal” value was 46.9 mg/day and 40.5 mg/day and 108.7 mg/day. In data set [5] (Test 1, 20 mg/kg), the “cardiac disturbance (in words)” value is “inhibited cardiac disturbance”, the “heart weight (in words)” value was “decrease of heart weight due to cardiac hypertrophy”, the “hypotension or kidney disturbance (in words)” value was “without inducing hypotension or kidney disturbance” and the “kidney weight (in words)” value is “decreased inhibition of kidney weight increase”. Moreover, in data set [5] (setting [11]), the “BP: blood pressure, average” value was found to be 232 mmHg; the “BUN: blood urea nitrogen, average” value is 58 mg/dL; the “BW: body weight, average” value is 385 g; the “CCr: creatinine clearance, average” value came to 0.76 mL/min. Further, in data set [5] (setting [11]), the “Cr: blood creatinine, average” value was found to be 1.0 mg/dL; the “HW: heart weight, average” value was 1.493 g; the “KW: kidney weight, average” value was determined as 1.451 g; the “RW: relative weight (heart), average” value was 0.388%. In addition, in data set [5] (setting [11]), the “RW: relative weight (kidney), average” value is recorded as 0.376% and the “U-Pro.: urinary protein, average” value came to 114.6 mg/day. In addition, in data set [5] (setting [12]), the “BP: blood pressure, individual animal” value is 247 mmHg and 221 mmHg and 229 mmHg; the “BUN … individual animal” value was 55 mg/dL and 50 mg/dL and 70 mg/dL; the “BW: body weight, individual animal” value is 415 g and 346 g and 394 g; the “CCr … individual animal” value was 0.88 mL/min and 0.74 mL/min and 0.66 mL/min. Further, in data set [5] (setting [12]), the “Cr: blood creatinine, individual animal” value was 1.0 mg/dL and 0.9 mg/dL and 1.2 mg/dL; the “HW: heart weight, individual animal” value was 1.546 g and 1.326 g and 1.606 g; the “KW: kidney weight, individual animal” value is 1.515 g and 1.269 g and 1.568 g; the “RW: relative weight (heart), individual animal” value was 0.373% and 0.383% and 0.408%. In data set [5] (setting [12]), the “RW: relative weight (kidney), individual animal” value was 0.365% and 0.366% and 0.398%; the “U-Pro.: urinary protein, individual animal” value is 119.8 mg/day and 50.5 mg/day and 174.6 mg/day.
As to `C[C@H](CS)C(=O)N1CCC[C@H]1C(=O)O` [Captopril], the “blood pressure (in words)” value in data set [3] (setting [6]) was “lower blood pressure”. Moreover, the “adverse reactions (in words)” value in data set [3] is “dry cough or adverse reaction of acute renal failure”.
